In the assay the target is human CXCR3A (Homo sapiens (Human), UniProt P49682). Nature of the assay: FLIPR assay (inhibition of CXCL10-induced calcium signal). The settings on record: engineered CHO-K1 cells expressing human CXCR3A coupled to Galpha(16); Fluo-4-AM; CXCL10 agonist 20 nM; mean values where determined several times. Format: cell-based. In outline: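 CHO-K1 cells expressing human CXCR3A coupled to Gα16 were loaded with Fluo-4-AM for 1 h in HBSS/20 mM Hepes pH 7.4 with probenecid. Compound was added, then CXCL10 (20 nM as dispensed). Baseline-subtracted peak fluorescence gave inhibition curves and IC50, averaged over repeats.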
human CXCR3A, sequence (P49682 whole entry): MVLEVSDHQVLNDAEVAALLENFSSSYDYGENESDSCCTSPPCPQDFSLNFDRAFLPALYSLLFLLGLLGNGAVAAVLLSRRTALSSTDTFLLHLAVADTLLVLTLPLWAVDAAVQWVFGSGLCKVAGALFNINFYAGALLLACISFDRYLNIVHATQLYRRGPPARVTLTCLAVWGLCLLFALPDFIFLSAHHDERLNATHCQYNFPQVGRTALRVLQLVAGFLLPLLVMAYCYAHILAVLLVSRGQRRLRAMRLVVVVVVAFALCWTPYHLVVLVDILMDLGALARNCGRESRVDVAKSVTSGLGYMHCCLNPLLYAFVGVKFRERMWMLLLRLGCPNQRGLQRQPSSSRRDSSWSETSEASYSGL

pIC50: −log10 of the molar value.

Usually pIC50 stands for −log10 of the IC50, conventionally taken in molar units. For `COc1ccccc1N1CCc2cccc(N3CCN(C(=O)Cn4cnc5cccnc54)[C@H](C)C3)c2C1` [Example 94, 2-Imidazo[4,5-b]pyridin-3-yl-1-{(R)-4-[2-(2-methoxy-phenyl)-1,2,3,4-tetrahydro-isoquinolin-8-yl]-2-methyl-piperazin-1-yl}-ethanone], the negative-log IC50 (pIC50) is 7.21.
Turning to `C[C@@H]1CN(c2cccc3c2CN(c2ccc(C#N)cc2)CC3)CCN1C(=O)Cn1cnc2cccnc21` [Example 95, 4-{8-[(R)-4-(2-Imidazo[4,5-b]pyridin-3-yl-acetyl)-3-methyl-piperazin-1-yl]-3,4-dihydro-1H-isoquinolin-2-yl}-benzonitrile], the pIC50 is 8.11.
With `C[C@@H]1CN(c2cccc3c2CN(c2ccc(C(F)(F)F)cc2)CC3)CCN1C(=O)Cn1cnc2cccnc21` [Example 96, 2-Imidazo[4,5-b]pyridin-3-yl-1-{(R)-2-methyl-4-[2-(4-trifluoromethyl-phenyl)-1,2,3,4-tetrahydro-isoquinolin-8-yl]-piperazin-1-yl}-ethanone], the pIC50 is 7.59.
Turning to `COc1cccc(N2CCc3cccc(N4CCN(C(=O)Cn5cnc6cccnc65)[C@H](C)C4)c3C2)c1` [Example 97, 2-Imidazo[4,5-b]pyridin-3-yl-1-{(R)-4-[2-(3-methoxy-phenyl)-1,2,3,4-tetrahydro-isoquinolin-8-yl]-2-methyl-piperazin-1-yl}-ethanone], the pIC50 is 8.36.
Consider `C[C@@H]1CN(c2cccc3c2CN(c2ccc(OC(F)(F)F)cc2)CC3)CCN1C(=O)Cn1cnc2cccnc21` [Example 98, 2-Imidazo[4,5-b]pyridin-3-yl-1-{(R)-2-methyl-4-[2-(4-trifluoromethoxy-phenyl)-1,2,3,4-tetrahydro-isoquinolin-8-yl]-piperazin-1-yl}-ethanone], for which the pIC50 was 7.94.
On to `C[C@@H]1CN(c2cccc3c2CN(c2ccc(F)cc2)CC3)CCN1C(=O)Cn1cnc2cccnc21` [Example 99, 1-{(R)-4-[2-(4-Fluoro-phenyl)-1,2,3,4-tetrahydro-isoquinolin-8-yl]-2-methyl-piperazin-1-yl}-2-imidazo[4,5-b]pyridin-3-yl-ethanone], for which the negative-log IC50 (pIC50) is 8.08.
As for `C[C@@H]1CN(c2cccc3c2CN(c2ccc(C(F)(F)F)nc2)CC3)CCN1C(=O)Cn1cnc2cccnc21` [Example 100, 2-Imidazo[4,5-b]pyridin-3-yl-1-{(R)-2-methyl-4-[2-(6-trifluoromethyl-pyridin-3-yl)-1,2,3,4-tetrahydro-isoquinolin-8-yl]-piperazin-1-yl}-ethanone], the pIC50 was 8.90.
As to `C[C@@H]1CN(c2cccc3c2CN(c2ccccc2)CC3)CCN1C(=O)Cn1cnc2cccnc21` [Example 101, 2-Imidazo[4,5-b]pyridin-3-yl-1-[(R)-2-methyl-4-(2-phenyl-1,2,3,4-tetrahydro-isoquinolin-8-yl)-piperazin-1-yl]-ethanone], the negative logarithm of the IC50 (pIC50) is 7.83.
On to `C[C@@H]1CN(c2cccc3c2CN(c2ncccn2)CC3)CCN1C(=O)Cn1cnc2cccnc21` [Example 102, 2-Imidazo[4,5-b]pyridin-3-yl-1-[(R)-2-methyl-4-(2-pyrimidin-2-yl-1,2,3,4-tetrahydro-isoquinolin-8-yl)-piperazin-1-yl]-ethanone], for which the negative-log IC50 (pIC50) is 7.54.
Consider `C[C@@H]1CN(c2cccc3c2CN(c2ccc(C(F)(F)F)cn2)CC3)CCN1C(=O)Cn1cnc2cccnc21` [Example 103, 2-Imidazo[4,5-b]pyridin-3-yl-1-{(R)-2-methyl-4-[2-(5-trifluoromethyl-pyridin-2-yl)-1,2,3,4-tetrahydro-isoquinolin-8-yl]-piperazin-1-yl}-ethanone], for which the pIC50 is 7.68.
The figure for `C[C@@H]1CN(c2cccc3c2CN(c2ccccn2)CC3)CCN1C(=O)Cn1cnc2cccnc21` [Example 104, 2-Imidazo[4,5-b]pyridin-3-yl-1-[(R)-2-methyl-4-(2-pyridin-2-yl-1,2,3,4-tetrahydro-isoquinolin-8-yl)-piperazin-1-yl]-ethanone] is 8.01; for `COc1ccc(N2CCc3cccc(N4CCN(C(=O)Cn5cnc6cccnc65)[C@H](C)C4)c3C2)cc1` [Example 105, 2-Imidazo[4,5-b]pyridin-3-yl-1-{(R)-4-[2-(4-methoxy-phenyl)-1,2,3,4-tetrahydro-isoquinolin-8-yl]-2-methyl-piperazin-1-yl}-ethanone] it is 7.69; for `C[C@@H]1CN(c2cccc3c2CN(c2cncnc2)CC3)CCN1C(=O)Cn1cnc2cccnc21` [Example 106, 2-Imidazo[4,5-b]pyridin-3-yl-1-[(R)-2-methyl-4-(2-pyrimidin-5-yl-1,2,3,4-tetrahydro-isoquinolin-8-yl)-piperazin-1-yl]-ethanone] it is 8.26.
Next, `C[C@@H]1CN(c2cccc3c2CN(c2cnc(C(F)(F)F)nc2)CC3)CCN1C(=O)Cn1cnc2cccnc21` [Example 107, 2-Imidazo[4,5-b]pyridin-3-yl-1-{(R)-2-methyl-4-[2-(2-trifluoromethyl-pyrimidin-5-yl)-1,2,3,4-tetrahydro-isoquinolin-8-yl]-piperazin-1-yl}-ethanone]: 8.76.
On to `Cc1cnc(N2CCc3cccc(N4CCN(C(=O)Cn5cnc6cccnc65)[C@H](C)C4)c3C2)nc1` [Example 108, 2-Imidazo[4,5-b]pyridin-3-yl-1-{(R)-2-methyl-4-[2-(5-methyl-pyrimidin-2-yl)-1,2,3,4-tetrahydro-isoquinolin-8-yl]-piperazin-1-yl}-ethanone], for which the pIC50 was 7.49.
In the case of `Cc1ncc(N2CCc3cccc(N4CCN(C(=O)Cn5cnc6cccnc65)[C@H](C)C4)c3C2)cn1` [Example 109, 2-Imidazo[4,5-b]pyridin-3-yl-1-{(R)-2-methyl-4-[2-(2-methyl-pyrimidin-5-yl)-1,2,3,4-tetrahydro-isoquinolin-8-yl]-piperazin-1-yl}-ethanone], the negative-log IC50 (pIC50) was 7.90.
As to `CCCc1ncc(N2CCc3cccc(N4CCN(C(=O)Cn5cnc6cccnc65)[C@H](C)C4)c3C2)cn1` [Example 110, 2-Imidazo[4,5-b]pyridin-3-yl-1-{(R)-2-methyl-4-[2-(2-propyl-pyrimidin-5-yl)-1,2,3,4-tetrahydro-isoquinolin-8-yl]-piperazin-1-yl}-ethanone], the pIC50 is 9.07.
As to `CC(C)Oc1ncc(N2CCc3cccc(N4CCN(C(=O)Cn5cnc6cccnc65)[C@H](C)C4)c3C2)cn1` [Example 111, 2-Imidazo[4,5-b]pyridin-3-yl-1-{(R)-4-[2-(2-isopropoxy-pyrimidin-5-yl)-1,2,3,4-tetrahydro-isoquinolin-8-yl]-2-methyl-piperazin-1-yl}-ethanone], the pIC50 is 8.32.
On to `C[C@@H]1CN(c2cccc3c2CN(c2cnc(OCC(F)(F)F)nc2)CC3)CCN1C(=O)Cn1cnc2cccnc21` [Example 112, 2-Imidazo[4,5-b]pyridin-3-yl-1-((R)-2-methyl-4-{2-[2-(2,2,2-trifluoro-ethoxy)-pyrimidin-5-yl]-1,2,3,4-tetrahydro-isoquinolin-8-yl}-piperazin-1-yl)-ethanone], for which the pIC50 is 8.53.
The figure for `C[C@@H]1CN(c2cccc3c2CN(c2nccs2)CC3)CCN1C(=O)Cn1cnc2cccnc21` [Example 113, 2-Imidazo[4,5-b]pyridin-3-yl-1-[(R)-2-methyl-4-(2-thiazol-2-yl-1,2,3,4-tetrahydro-isoquinolin-8-yl)-piperazin-1-yl]-ethanone] is 7.91; for `Cc1csc(N2CCc3cccc(N4CCN(C(=O)Cn5cnc6cccnc65)[C@H](C)C4)c3C2)n1` [Example 114, 2-Imidazo[4,5-b]pyridin-3-yl-1-{(R)-2-methyl-4-[2-(4-methyl-thiazol-2-yl)-1,2,3,4-tetrahydro-isoquinolin-8-yl]-piperazin-1-yl}-ethanone] it is 8.02.
Next, `C[C@@H]1CN(c2cccc3c2CN(c2ncc(-c4ccccc4)s2)CC3)CCN1C(=O)Cn1cnc2cccnc21` [Example 115, 2-Imidazo[4,5-b]pyridin-3-yl-1-{(R)-2-methyl-4-[2-(5-phenyl-thiazol-2-yl)-1,2,3,4-tetrahydro-isoquinolin-8-yl]-piperazin-1-yl}-ethanone]: 7.88.
`Cc1nc(N2CCc3cccc(N4CCN(C(=O)Cn5cnc6cccnc65)[C@H](C)C4)c3C2)sc1C` [Example 116, 1-{(R)-4-[2-(4,5-Dimethyl-thiazol-2-yl)-1,2,3,4-tetrahydro-isoquinolin-8-yl]-2-methyl-piperazin-1-yl}-2-imidazo[4,5-b]pyridin-3-yl-ethanone]: the pIC50 was 7.82.
`C[C@@H]1CN(c2cccc3c2CN(c2nc(C#N)cs2)CC3)CCN1C(=O)Cn1cnc2cccnc21` [Example 117, 2-{8-[(R)-4-(2-Imidazo[4,5-b]pyridin-3-yl-acetyl)-3-methyl-piperazin-1-yl]-3,4-dihydro-1H-isoquinolin-2-yl}-thiazole-4-carbonitrile]: the pIC50 is 8.43.
Consider `COc1ncc(N2CCc3cccc(N4CCN(C(=O)Cn5cnc6cccnc65)[C@H](C)C4)c3C2)cn1` [Example 118, 2-Imidazo[4,5-b]pyridin-3-yl-1-{(R)-4-[2-(2-methoxy-pyrimidin-5-yl)-1,2,3,4-tetrahydro-isoquinolin-8-yl]-2-methyl-piperazin-1-yl}-ethanone], for which the pIC50 was 8.19.
Turning to `COc1ccc(N2CCc3cccc(N4CCN(C(=O)Cn5cnc6cccnc65)[C@H](C)C4)c3C2)nn1` [Example 119, 2-Imidazo[4,5-b]pyridin-3-yl-1-{(R)-4-[2-(6-methoxy-pyridazin-3-yl)-1,2,3,4-tetrahydro-isoquinolin-8-yl]-2-methyl-piperazin-1-yl}-ethanone], the negative-log IC50 (pIC50) is 7.96.
As to `COc1cncc(N2CCc3cccc(N4CCN(C(=O)Cn5cnc6cccnc65)[C@H](C)C4)c3C2)n1` [Example 120, 2-Imidazo[4,5-b]pyridin-3-yl-1-{(R)-4-[2-(6-methoxy-pyrazin-2-yl)-1,2,3,4-tetrahydro-isoquinolin-8-yl]-2-methyl-piperazin-1-yl}-ethanone], the pIC50 is 8.69.

These data come from patent publication US9951063B2, “8-(piperazin-1-yl)-1,2,3,4-tetrahydro-isoquinoline derivatives” (IDORSIA PHARMACEUTICALS LTD, priority 2014, dated 2018).
